According to patent US20240382629A1, “HETEROBIVALENT AND HOMOBIVALENT AGENTS TARGETING FIBROBLAST ACTIVATION PROTEIN ALPHA AND/OR PROSTATE-SPECIFIC MEMBRANE ANTIGEN” (The Johns Hopkins University, priority 2021, published 2024):
Where “and” joins values, the source holds several entries; their conditions need not be identical. Equal entries are not always repeated.

System: U87 tumor
Assay: Biodistribution ([^18F]JHU1221823), carrier / specific activity study
Type: in vivo, mouse
Settings: individual mouse
Source text: Biodistribution of Representative Compounds

[1] = NOD/SCID, U87 tumor, Carrier 700, 60 min post injection
[2] = Nude mice, U87 tumor, Baseline (~5000 mCi/μmol), 60 min post injection
[3] = Nude mice, U87 tumor, Carrier 350 (350 mCi/μmol), 60 min post injection
[4] = Nude mice, U87 tumor, Carrier 700, 60 min post injection
[5] = U87 tumor, Baseline, second block (stands before <NOD/SCID> heading), 60 min post injection

## N#C[C@@H]1CCCN1C(=O)CNC(=O)c1ccnc2ccc(OCCCNC(=O)CCOCCOCCOCCOCCNC(=O)[C@H](CCCCNC(=O)c3ccc([18F])nc3)NC(=O)CN3CCN(CC(=O)O)CCN(CC(=O)O)CCN(CC(=O)O)CC3)cc12 [[^18F]JHU1221823]
[1]
  Liver % ID/g: 2.36 % ID/g
  Lung % ID/g: 3.66 % ID/g
  Muscle % ID/g: 1.99 % ID/g
  Pancreas % ID/g: 13.03 % ID/g
  Salivary gland % ID/g: 11.31 % ID/g
  Small intestine % ID/g: 3.48 % ID/g
  Spleen % ID/g: 1.46 % ID/g
  Stomach % ID/g: 1.64 % ID/g
  Tumor % ID/g: 7.79 % ID/g
[2]
  Bladder % ID/g: 2.02 % ID/g and 2.74 % ID/g
  Blood % ID/g: 10.83 % ID/g and 12.08 % ID/g
  Brain % ID/g: 0.22 % ID/g and 0.24 % ID/g
  Fat % ID/g: 1.10 % ID/g and 0.89 % ID/g
  Femur % ID/g: 1.98 % ID/g and 2.84 % ID/g
  Heart % ID/g: 5.09 % ID/g and 5.98 % ID/g
  Kidney % ID/g: 2.76 % ID/g and 3.06 % ID/g
  Large intestine % ID/g: 1.38 % ID/g and 1.42 % ID/g
  Liver % ID/g: 3.56 % ID/g and 3.06 % ID/g
  Lung % ID/g: 6.48 % ID/g and 7.46 % ID/g
  Muscle % ID/g: 1.44 % ID/g and 2.06 % ID/g
  Pancreas % ID/g: 3.42 % ID/g and 3.30 % ID/g
  Salivary gland % ID/g: 6.35 % ID/g and 7.47 % ID/g
  Small intestine % ID/g: 2.47 % ID/g and 2.93 % ID/g
  Spleen % ID/g: 2.17 % ID/g and 1.96 % ID/g
  Stomach % ID/g: 1.14 % ID/g and 1.32 % ID/g
  Tumor % ID/g: 2.14 % ID/g and 2.52 % ID/g
[3]
  Bladder % ID/g: 1.62 % ID/g and 1.85 % ID/g
  Blood % ID/g: 6.11 % ID/g and 4.56 % ID/g
  Brain % ID/g: 0.16 % ID/g and 0.12 % ID/g
  Fat % ID/g: 0.54 % ID/g and 1.24 % ID/g
  Femur % ID/g: 3.83 % ID/g and 4.47 % ID/g
  Heart % ID/g: 2.83 % ID/g and 2.18 % ID/g
  Kidney % ID/g: 2.25 % ID/g and 1.88 % ID/g
  Large intestine % ID/g: 1.92 % ID/g and 1.61 % ID/g
  Liver % ID/g: 2.06 % ID/g and 1.75 % ID/g
  Lung % ID/g: 3.70 % ID/g and 3.20 % ID/g
  Muscle % ID/g: 2.58 % ID/g and 2.23 % ID/g
  Pancreas % ID/g: 5.80 % ID/g and 6.78 % ID/g
  Salivary gland % ID/g: 10.81 % ID/g and 11.50 % ID/g
  Small intestine % ID/g: 2.29 % ID/g and 2.54 % ID/g
  Spleen % ID/g: 1.45 % ID/g and 1.12 % ID/g
  Stomach % ID/g: 1.60 % ID/g and 1.53 % ID/g
  Tumor % ID/g: 2.01 % ID/g and 2.53 % ID/g
[4]
  Bladder % ID/g: 2.15 % ID/g and 2.30 % ID/g
  Blood % ID/g: 10.55 % ID/g and 9.33 % ID/g
  Brain % ID/g: 0.21 % ID/g and 0.19 % ID/g
  Fat % ID/g: 0.41 % ID/g and 0.56 % ID/g
  Femur % ID/g: 2.93 % ID/g and 3.18 % ID/g
  Heart % ID/g: 4.92 % ID/g and 4.38 % ID/g
  Kidney % ID/g: 2.54 % ID/g and 2.52 % ID/g
  Large intestine % ID/g: 1.45 % ID/g and 1.79 % ID/g
  Liver % ID/g: 2.76 % ID/g and 2.85 % ID/g
  Lung % ID/g: 6.05 % ID/g and 5.08 % ID/g
  Muscle % ID/g: 2.06 % ID/g and 2.07 % ID/g
  Pancreas % ID/g: 3.40 % ID/g and 4.43 % ID/g
  Salivary gland % ID/g: 9.08 % ID/g and 7.18 % ID/g
  Small intestine % ID/g: 2.37 % ID/g and 1.98 % ID/g
  Spleen % ID/g: 1.75 % ID/g and 1.70 % ID/g
  Stomach % ID/g: 1.18 % ID/g and 1.57 % ID/g
  Tumor % ID/g: 1.81 % ID/g and 2.22 % ID/g
[5]
  Bladder % ID/g: 3.22 % ID/g and 10.62 % ID/g
  Blood % ID/g: 11.98 % ID/g and 10.01 % ID/g
  Brain % ID/g: 0.23 % ID/g and 0.21 % ID/g
  Fat % ID/g: 0.53 % ID/g and 0.71 % ID/g
  Femur % ID/g: 1.95 % ID/g and 2.78 % ID/g
  Heart % ID/g: 7.41 % ID/g and 6.48 % ID/g
  Kidney % ID/g: 3.14 % ID/g and 3.67 % ID/g
  Large intestine % ID/g: 1.66 % ID/g and 2.70 % ID/g
  Liver % ID/g: 4.04 % ID/g and 4.72 % ID/g
  Lung % ID/g: 7.27 % ID/g and 6.79 % ID/g
  Muscle % ID/g: 1.14 % ID/g and 2.13 % ID/g
  Pancreas % ID/g: 6.82 % ID/g and 9.52 % ID/g
  Salivary gland % ID/g: 11.69 % ID/g and 12.09 % ID/g
  Small intestine % ID/g: 3.79 % ID/g and 3.54 % ID/g
  Spleen % ID/g: 2.33 % ID/g and 1.99 % ID/g
  Stomach % ID/g: 1.66 % ID/g and 1.97 % ID/g
  Tumor % ID/g: 1.17 % ID/g and 5.00 % ID/g
Carrier not given
  Bladder % ID/g: 6.41 % ID/g and 2.64 % ID/g
  Blood % ID/g: 9.28 % ID/g and 9.80 % ID/g
  Brain % ID/g: 0.23 % ID/g and 0.22 % ID/g
  Fat % ID/g: 0.47 % ID/g and 1.68 % ID/g
  Femur % ID/g: 2.55 % ID/g and 3.11 % ID/g
  Heart % ID/g: 4.31 % ID/g and 4.98 % ID/g
  Kidney % ID/g: 2.70 % ID/g and 2.77 % ID/g
  Large intestine % ID/g: 1.29 % ID/g and 1.69 % ID/g
  Liver % ID/g: 2.68 % ID/g and 3.29 % ID/g
  Lung % ID/g: 5.58 % ID/g and 5.91 % ID/g
  Muscle % ID/g: 1.79 % ID/g and 1.78 % ID/g
  Pancreas % ID/g: 1.62 % ID/g and 2.66 % ID/g
  Salivary gland % ID/g: 7.44 % ID/g and 6.43 % ID/g
  Small intestine % ID/g: 2.59 % ID/g and 3.46 % ID/g
  Spleen % ID/g: 1.85 % ID/g and 2.43 % ID/g
  Stomach % ID/g: 0.84 % ID/g and 1.45 % ID/g
  Tumor % ID/g: 4.35 % ID/g and 7.0+ % ID/g
